Experimental data: the OPERA property sets (Mansouri et al. 2018)

Conditions: for log10 BCF / log10 biotransformation half-life (days): fish

Row | SMILES | melting point [°C] | boiling point [°C] | further results
1 | CNC(=O)C(C)(C(C)C)C(C)C | 60 |  | 
2 | c1ccc(N=Nc2ccc(Nc3ccccc3)cc2)cc1 | 90 |  | 
3 | CC(=O)N(O)CCCCCNC(=O)CCC(=O)N(O)CCCCCNC(=O)CCC(=O)N(O)CCCCCN | 140 |  | 
4 | FC(F)(F)C(F)(F)C(F)(F)C(F)(F)C(F)(F)F | -100 | 29.2 | 
5 | COCCCl |  | 92.5 | 
6 | C=NCC#N | 129 |  | 
7 | CCCCOc1ccc(O)cc1 | 65.5 |  | 
8 | CCN(CC)c1cccc(C)c1 |  | 232 | 
9 | Clc1ccoc1 |  | 80 | 
10 | CC(=O)Nc1cccc(C(F)(F)F)c1 | 104 |  | log10 Koc (L/kg): 1.75
11 | O=C(O)CC(Br)C(=O)O (configuration not stated) | 161 |  | 
12 | Nc1nc(N)nc(-c2cc(Cl)ccc2Cl)n1 | 268 |  | 
13 | CCC1(C(C)C)C(=O)NC(=O)NC1=O | 203 |  | 
14 | O=C(C(F)(F)Cl)C(F)(F)Cl |  | 44.5 | 
15 | CCCCCC(C)(C)CC |  | 161 | 
16 | CC(=O)c1cc(C)c(C)cc1C | 10.5 | 246 | 
17 | NCCCN |  | 140 | 
18 | CC(=NO)c1ccccc1 | 60 | 245 | 
19 | CNC(=O)Oc1cc(C(C)(C)C)cc(C(C)(C)C)c1 | 103 |  | log10 vapour pressure (mmHg): -5.7
20 | Clc1ccc(Cl)c(-c2cc(Cl)c(Cl)c(Cl)c2)c1 | 105 |  | 
21 | C#CC(C)(O)c1ccccc1 (configuration not stated) | 52.3 | 218 | 
22 | CC(N)=O | 81 | 222 | log10 Koc (L/kg): 0.7; log10 vapour pressure (mmHg): -1.4; ready biodegradability: readily biodegradable
23 | COc1ccccc1Cl | -26.8 | 198 | log10 vapour pressure (mmHg): -0.623

Row | SMILES | melting point [°C] | boiling point [°C] | further results
24 | Cc1ccnc(N)c1 | 100 |  | 
25 | CCCN1CCCCC1 |  | 152 | 
26 | CCCCCCCCCCCCCl | -9.3 | 260 | log10 vapour pressure (mmHg): -2.2; ready biodegradability: readily biodegradable
27 | Clc1cc2ccccc2c2ccccc12 |  |  | log10 BCF: 3.49; log10 biotransformation half-life (days): 1.8
28 | N#CO | -86 |  | log10 vapour pressure (mmHg): 2.91
29 | CC(CCO)CCO |  |  | ready biodegradability: readily biodegradable
30 | Brc1cc(Br)cc(Br)c1 | 123 | 271 | log10 vapour pressure (mmHg): -2.82; log10 BCF: 3.7; log10 biotransformation half-life (days): 1.65
31 | COc1cc(C[C@H]2c3cc(OC)c(OC)cc3CCN2C)c(Oc2cc3c(cc2OC)-c2c(OC)c(OC)cc4c2[C@H](C3)N(C)CC4)cc1OC | 160 |  | 
32 | CS(=O)(=O)Nc1ccc([N+](=O)[O-])cc1Oc1ccccc1 | 144 |  | 
33 | Clc1c(Cl)c(Cl)c2ccccc2c1Cl | 198 |  | log10 Koa: 8.3; log10 vapour pressure (mmHg): -5.54; log10 BCF: 3.7; log10 biotransformation half-life (days): 1.2
34 | O=COCC=Cc1ccccc1 | 0 | 252 | 
35 | O=c1cc(CO)occ1O | 154 |  | 
36 | C#CCO | -51.8 | 114 | log10 vapour pressure (mmHg): 1.19; ready biodegradability: readily biodegradable
37 | N#CCCCCCCCCCCC(=O)O |  |  | ready biodegradability: readily biodegradable
38 | Brc1cccc(Oc2ccc(Br)c(Br)c2Br)c1 |  |  | log10 vapour pressure (mmHg): -5.66
39 | CC1CCCCN1CCCOC(=O)c1ccc(Cl)c(Cl)c1 (configuration not stated) |  |  | log10 Koc (L/kg): 3.7
40 | CC[C@@H]1CCC[C@H]1C | -106 | 125 | log10 vapour pressure (mmHg): 1.3
41 | CCCCN(C(C)=O)c1ccccc1 | 24.5 | 281 | 
42 | OCCc1ccc2ccccc2n1 | 103 |  | 
43 | c1ccc(Cn2cncn2)cc1 | 49 |  | 
44 | Nc1cccc(Cl)c1C(=O)O | 159 |  | 
45 | CC(C)CC(=O)OCc1ccccc1 |  | 245 | 
46 | CCCCCCCCCCCCCCCCCCCCCCCCCCCCCCCCCC | 72.6 | 483 | log10 biodegradation half-life (days): 2.58; ready biodegradability: readily biodegradable

Row | SMILES | melting point [°C] | boiling point [°C] | further results
47 | C[C@]12CC[C@H](O)C[C@H]1CC[C@@H]1[C@@H]2C[C@@H](O)[C@]2(C)[C@@H](C3=CC(=O)OC3)CC[C@]12O | 222 |  | 
48 | CC1=C(C)C(=O)C(C)=C(C)C1=O | 112 |  | 
49 | Sc1ccc2ccccc2c1 | 81 | 288 | ready biodegradability: not readily biodegradable
50 | C=C(C)C(C)=O | -54 | 98 | 
51 | CC(=O)OCCCl |  | 145 | 
52 | CCCCCCCCCCCCC=O | 14 |  | 
53 | C#CC(C)(C)O | 3 | 104 | log10 Henry constant (atm·m³/mol): -5.41; log10 vapour pressure (mmHg): 1.2
54 | C[C@]12CC[C@H](O)C[C@H]1CC[C@@H]1[C@@H]2CC[C@]2(C)[C@@H](C3=CC(=O)OC3)CC[C@]12O | 253 |  | 
55 | CC(=O)c1ccncc1 | 16 | 212 | log10 Henry constant (atm·m³/mol): -7.2
56 | CC(CCc1ccccc1)NCC(O)c1ccc(O)c(C(N)=O)c1 (configuration not stated) | 188 |  | 
57 | CCN(CC)CCN(CC)CC |  | 192 | 
58 | CC(=O)Oc1ccc(-c2ccccc2)cc1 | 89 |  | 
59 | CCCCCCCCCCCCC(=O)O | 44.5 | 312 | log10 vapour pressure (mmHg): -4.9
60 | O=COCCCc1ccccc1 |  | 250 | 
61 | O=S(=O)(Oc1ccc(Cl)cc1Cl)c1ccccc1 | 45.5 |  | 
62 | CC(C)(C)C(=O)NNCc1ccccc1 | 68.5 |  | 
63 | O=C(C=NO)c1ccccc1 | 129 |  | 
64 | CCCCCCCCCCCCOS(=O)(=O)O |  |  | ready biodegradability: readily biodegradable
65 | C#COCC |  | 50 | 
66 | CC(C)(CO)COC(=O)C(C)(C)CO |  |  | ready biodegradability: not readily biodegradable
67 | CC1=C[C@H](O)CC(C)(C)[C@H]1/C=C/C(C)=C/C=C/C(C)=C/C=C/C=C(C)/C=C/C=C(C)/C=C/C1=C(C)C[C@@H](O)CC1(C)C | 196 |  | 
68 | CC1=C(/C=C/C(C)=C/C=C/C(C)=C/C=C/C=C(C)/C=C/C=C(C)/C=C/C2=C(C)C[C@@H](O)CC2(C)C)C(C)(C)C[C@H](O)C1 | 216 |  | 
69 | CC(C)C(C)(O)C(C)C |  | 156 | 

Row | SMILES | melting point [°C] | boiling point [°C] | further results
70 | Cc1ccc(C)c(C(C)c2ccccc2)c1 (configuration not stated) |  |  | ready biodegradability: not readily biodegradable; log10 BCF: 2.86; log10 biotransformation half-life (days): 0.1
71 | Nc1ccc2ncccc2c1 | 114 |  | log10 vapour pressure (mmHg): -4.79
72 | Clc1ccc(-c2ccccc2)c(Cl)c1 |  |  | log10 Henry constant (atm·m³/mol): -3.55; log10 vapour pressure (mmHg): -2.86
73 | FC(F)(F)C(F)(F)C(F)(F)C(F)(F)I | -68 | 67 | 
74 | Nc1ccc2c(O)cc(S(=O)(=O)O)cc2c1 |  |  | ready biodegradability: not readily biodegradable; log10 BCF: 0.38
75 | O=[N+]([O-])c1c(F)cc(F)cc1F | 3.5 | 184 | 
76 | Cc1cc(C)c(S(=O)(=O)Cl)c(C)c1 | 56 |  | 
77 | CCCCCCCCCCCCCCCC(OC)OC | 10 |  | 
78 | CC(=O)c1cc(C)ccc1C | -18.1 | 232 | 
79 | O=C(O)c1ccccc1C(=O)Nc1cccc2ccccc12 | 185 |  | 
80 | Cn1nnc2ccccc21 | 64.5 | 270 | 
81 | O=CC(Br)(Br)Br | -57.5 | 174 | log10 vapour pressure (mmHg): 0.183
82 | CC(C)N=C=NC(C)C |  | 147 | 
83 | FC(F)(F)c1ccc(C(F)(F)F)cc1 |  | 116 | 
84 | CCc1nn(CCCN2CCN(c3cccc(Cl)c3)CC2)c(=O)n1CCOc1ccccc1 | 83.5 |  | 
85 | O=C(Cl)OCCOCCOC(=O)Cl |  | 229 | log10 vapour pressure (mmHg): -2.83
86 | CCCC/C=C/CCCC | -73 | 171 | 
87 | Clc1nc(Cl)nc(Nc2ccccc2Cl)n1 | 160 |  | log10 Koc (L/kg): 3; log10 vapour pressure (mmHg): -8.21
88 | CCCCCCCCCl | -57.8 | 182 | log10 vapour pressure (mmHg): -0.0223; ready biodegradability: readily biodegradable
89 | Nc1c(F)cc(F)cc1F | 35 |  | 
